“Also recorded” adds a separate entry of the source.
Legend:
[1] = tested on: activity of heart and hemodynamics; assay: phase curve analysis of aortic blood flow: activity of heart and hemodynamics in anesthetized cats; assay type: in vivo; design: Maximum blood flow: unit not given here; conditions: for Time of systolic ejaculation: background 0.14 ± 0.008; for Time of diastolic relaxation: background 0.22 ± 0.01; for Minute work: background 0.88 ± 0.09; for Systolic (beat) volume: background 1.93 ± 0.12; for Maximum blood flow: background 19.7 ± 2.1; for Maximum linear speed: background 35 ± 1.9; for Average arterial pressure: background 148 ± 7.6; for Pulse frequency: background 181 ± 5; for Minute volume: background 372 ± 26
Source text: In experiments on cats and dogs under the general anesthesia conditions the volumetric flow rate of blood flow in the ascending part of the aortic arch has been recorded by the electromagnetic method using an electromagnetic blood flow meter and vessel sensors of appropriate size. On the basis of analysis of the phase curve of the blood flow, the main characteristics of heart activity and hemodynamics have been calculated. […] The averaged data of analysis of phase curves of the blood flow in cat's aorta under general anesthesia conditions (8 tests) are given in the Table hereinbelow.
Effect of the preparation (250 mg/kg intravenously) on the
activity of heart and basic characteristics of hemodynamics

coronary blood flow = assay: rate of coronary blood flow and oxygen absorption by myocardium in anesthetized cats; assay type: in vivo
Protocol: At the same time, the content of oxyhemoglobin in the coronary venous blood is determined by the photometrical method and the absorption of oxygen by myocardium is calculated on the basis of the arterio-venous difference value.
The effect duration varies within the range of from 5 to 10 minutes. With increasing the preparation dose up to 500 mg/kg, the intensity and duration of the effect are increased reaching respectively 108±12% and 30-40 minutes.
Calculation of the amount of the heart-absorbed oxygen points to it explicit increase (29±2.3%).

solubility in water = assay type: physicochemical; conditions: white crystalline powder
[2] = 5 minutes after 250 mg/kg intravenously
[3] = 10 minutes after 250 mg/kg intravenously
[4] = 20 minutes after 250 mg/kg intravenously
[5] = 40 minutes after 250 mg/kg intravenously

CN1C(=O)N(C)C2C1N(C)C(=O)N2C (stereo not drawn) [the preparation, 2,4,6,8-tetramethyl-2,4,6,8-tetraazobicyclo-/3,3,0/-octanedione-3,7]
heart function ([1]; 250 mg/kg intravenously): capable of increase the heart function
Time of systolic ejaculation [1, 2]: 0.12 ± 0.01 s
Time of diastolic relaxation [1, 2]: 0.22 ± 0.01 s
Minute work [1, 2]: 1.12 ± 0.15 kgm
Systolic (beat) volume [1, 2]: 2.22 ± 0.15 mL
Maximum blood flow [1, 2]: 30 ± 8.2
Maximum linear speed [1, 2]: 41 ± 2.7 cm/s
Average arterial pressure [1, 2]: 137 ± 6.9 mm Hg
Pulse frequency [1, 2]: 190 ± 6 b/min
Minute volume [1, 2]: 464 ± 38 mL/min
Time of systolic ejaculation [1, 3]: 0.11 ± 0.09 s
Time of diastolic relaxation [1, 3]: 0.21 ± 0.01 s
Minute work [1, 3]: 1.23 ± 0.11 kgm
Systolic (beat) volume [1, 3]: 2.34 ± 0.18 mL
Maximum blood flow [1, 3]: 34 ± 2.6
Maximum linear speed [1, 3]: 49 ± 2.8 cm/s
Average arterial pressure [1, 3]: 126 ± 8.1 mm Hg
Pulse frequency [1, 3]: 197 ± 5 b/min
Minute volume [1, 3]: 488 ± 43 mL/min
Time of systolic ejaculation [1, 4]: 0.13 ± 0.01 s
Time of diastolic relaxation [1, 4]: 0.20 ± 0.01 s
Minute work [1, 4]: 0.97 ± 0.08 kgm
Systolic (beat) volume [1, 4]: 2.01 ± 0.15 mL
Maximum blood flow [1, 4]: 28 ± 1.4
Maximum linear speed [1, 4]: 38 ± 2.3 cm/s
Average arterial pressure [1, 4]: 139 ± 7.4 mm Hg
Pulse frequency [1, 4]: 191 ± 7 b/min
Minute volume [1, 4]: 415 ± 32 mL/min
Time of systolic ejaculation [1, 5]: 0.13 ± 0.008 s
Time of diastolic relaxation [1, 5]: 0.23 ± 0.009 s
Minute work [1, 5]: 0.83 ± 0.10 kgm
Systolic (beat) volume [1, 5]: 1.97 ± 0.12 mL
Maximum blood flow [1, 5]: 21.4 ± 2.2
Maximum linear speed [1, 5]: 33. ± 3.1 cm/sec
Average arterial pressure [1, 5]: 146 ± 8.8 mm Hg
Pulse frequency [1, 5]: 183 ± 7 b/min
Minute volume [1, 5]: 397 ± 33 mL/min
arterio-venous difference relative to oxygen (coronary blood flow): lowering the arterio-venous difference relative to oxygen; also recorded: decrease in the arterio-venous difference relative to oxygen
content of oxyhemoglobin in coronary venous blood (coronary blood flow): increased content of oxyhemoglobin in coronary venous blood
increase of coronary blood flow versus absorption of oxygen by myocardium (coronary blood flow): surpasses the absorption of oxygen by myocardium
increase of coronary blood flow (coronary blood flow; 50 mg/kg intravenously, average): 32±5%
duration of coronary blood flow effect (coronary blood flow; 500 mg/kg): 30 to 40 min
increase of coronary blood flow (coronary blood flow; 500 mg/kg): 108±12%
increase of the amount of the heart-absorbed oxygen (coronary blood flow; calculated from arterio-venous difference): 29±2.3%
solubility in water (solubility in water): well soluble in water

Source: patent publication US4571403A, “Antianginal medicated compound” (Institut Organicheskoi Khimii Imeni N.D. Zelinskogo …, priority 1984, dated 1986)
